Each structure is given as a SMILES string. Activity calls are given as the source filed them. No cut-off for these calls is given here.

This passage reports IC50, EC50 and Activity results from ChEMBL document CHEMBL4725373, “Introduction of Scaffold Nitrogen Atoms Renders Inhibitors of the Malarial l-Lactate Transporter, PfFNT, Effective against the Gly107Ser Resistance Mutation” (J Med Chem, 2020).

The nature of assay [1]: Inhibition of Plasmodium falciparum FNT expressed in Saccharomyces cerevisiae W303-1A del-jen1 ady2-del (MATa, can1-100, ade2-loc, his3-11-15, leu2-3,-112, trp1-1-1, ura3-1, jen1::kanMX4, ady2::hphMX4) assessed as reduction in [1-14C]-L-lactate uptake incubated for 20 mins followed by [1-14C]-L-lactate addition by liquid scintillation counting method.
Assay [2] relates to Plasmodium falciparum. Description: Antiplasmodial activity against Plasmodium falciparum 3D7 assessed as reduction in parasitemia after 24 hrs by LSR II FACS method. It is filed as functional, organism-based. The note with it: 3D7, 24 h.
Assay [3] is described as follows: Inhibition of Plasmodium falciparum FNT G107S mutant expressed in Saccharomyces cerevisiae W303-1A del-jen1 ady2-del (MATa, can1-100, ade2-loc, his3-11-15, leu2-3,-112, trp1-1-1, ura3-1, jen1::kanMX4, ady2::hphMX4) assessed as reduction in [1-14C]-L-lactate uptake incubated for 20 mins followed by [1-14C]-L-lactate addition by liquid scintillation counting method.

Assay [4] can be described thus: Inhibition of Plasmodium falciparum FNT G107S mutant expressed in Saccharomyces cerevisiae W303-1A del-jen1 ady2-del (MATa, can1-100, ade2-loc, his3-11-15, leu2-3,-112, trp1-1-1, ura3-1, jen1::kanMX4, ady2::hphMX4) assessed as reduction in [1-14C]-L-lactate uptake incubated for 10 to 15 mins followed by [1-14C]-L-lactate addition and measured after 120 secs by liquid scintillation counting method.

Assay [5] can be described thus: Inhibition of Plasmodium falciparum FNT expressed in Saccharomyces cerevisiae W303-1A del-jen1 ady2-del (MATa, can1-100, ade2-loc, his3-11-15, leu2-3,-112, trp1-1-1, ura3-1, jen1::kanMX4, ady2::hphMX4) assessed as reduction in [1-14C]-L-lactate uptake incubated for 10 to 15 mins followed by [1-14C]-L-lactate addition and measured after 30 secs by liquid scintillation counting method.

Assay [6] has as its system Plasmodium falciparum. As to the kind of experiment: Antiplasmodial activity against Plasmodium falciparum 3D7 assessed as reduction in parasitemia incubated for 48 hrs supplemented with fresh medium containing compound at 24 hrs by LSR II FACS method. Format: functional, organism-based.
Assay [7] has as its system Plasmodium falciparum. Description: Antiplasmodial activity against Plasmodium falciparum 3D7 assessed as reduction in parasite regrowth at 0.45 uM incubated for 14 days followed by compound washout and measured after 7 days. It is filed as functional, organism-based. The note with it: time 14.0 day.
The test system of assay [8] is Plasmodium falciparum. Description: Antiplasmodial activity against Plasmodium falciparum 3D7 assessed as reduction in parasite regrowth at 0.75 uM incubated for 14 days followed by compound washout and measured after 30 days. Format: functional, organism-based. The conditions noted are these: time 14.0 day.

Regarding `COc1ccc(C(=O)/C=C(\O)C(F)(F)C(F)(F)F)cc1`, the IC50 (as a rule, the concentration that inhibits the measured activity by half) is 0.14 µM in assay [1] and 2.6 µM in assay [3]. In addition, in assay [2], the EC50 – broadly, the concentration at which the effect is half-maximal – turned out to be 3.4 µM.
As for `O=C(/C=C(\O)C(F)(F)C(F)(F)F)c1cnccn1`, the IC50 in assay [4] amounted to 1.2 µM; in assay [5], 0.46 µM.
In the same order, the values of `CC(C)(O)CC(=O)/C=C(\O)C(F)(F)C(F)(F)F` are 490 µM and 1.1 µM.
In the same order, the values of `O=C(/C=C(\O)C(F)(F)C(F)(F)F)c1cc[nH]c1` are 13 µM and 0.2 µM.
Turning to `COc1ccc(C(=O)/C=C(\O)C(F)(F)C(F)(F)F)cn1`, the IC50 in assay [4] amounted to 0.26 µM; in assay [5] it was 0.11 µM. Also, the concentration giving a half-maximal response (EC50) in assay [6] was found to be 3.88 µM.
In the same order, the values of `CCCCC(F)(F)/C(O)=C/C(=O)c1cccnc1` are 24 µM, 0.36 µM and 20.1 µM.
Turning to `Cc1[nH]nc(C(F)(F)F)c1Cc1sc2c(c1C(=O)N1C[C@](C)(O)CO1)c(=O)n(C)c(=O)n2C(C)C`, the outcome in assay [6] was inactive.
On to `COc1ccc(CC(=O)/C=C(\O)C(F)(F)C(F)(F)F)cc1`, for which the IC50 in assay [4] stood at 69 µM; in assay [5], 1.9 µM.
The matching figures for `O=C(/C=C(\O)C(F)(F)C(F)(F)F)/C=C/c1ccccc1`: 26 µM and 0.29 µM.
The matching figures for `O=C(/C=C(\O)C(F)(F)C(F)(F)F)c1cccnn1`: 3.8 µM and 0.86 µM.
As to `COc1ccc(C(=O)/C=C(\O)C(F)(F)C(F)(F)F)c(O)c1`, the IC50 in assay [1] was determined as 0.17 µM; in assay [3], 20 µM. Also, in assay [2], the EC50 was 0.14 µM. In addition, the outcome in assay [7] was inactive.
As to `O=C(/C=C(\O)C(F)(F)C(F)(F)F)c1ccncc1`, the concentration for half-maximal inhibition (IC50) in assay [4] stood at 22 µM; in assay [5] it was 0.15 µM.
With `O=C(/C=C(\O)C(F)(F)C(F)(F)F)c1ccc[nH]1`, the IC50 in assay [4] was 12 µM; in assay [5], 0.16 µM.
The matching figures for `O=C(/C=C(\O)C(F)(F)C(F)(F)F)c1cnc2ccccc2c1`: 96 µM and 0.24 µM.
Take `O=C(/C=C(\O)C(F)(F)C(F)(F)F)c1ccccn1`: the values for the IC50 in assay [4] and in assay [5] were 0.58 µM and 0.15 µM, respectively. Also, in assay [6], the EC50 came out at 13.5 µM.
In the case of `O=C(/C=C(\O)C(F)(F)C(F)(F)F)c1cccnc1`, the IC50 in assay [4] was 0.63 µM; in assay [5], 0.11 µM. Further, the EC50 in assay [6] amounted to 0.24 µM. Moreover, the result in assay [8] was Active.
With `COc1ccc(CCC(=O)/C=C(\O)C(F)(F)C(F)(F)F)cc1`, the IC50 in assay [4] was found to be 6.3 µM; in assay [5], 0.19 µM.
`O=C(/C=C(\O)C(F)(F)C(F)(F)F)c1cc2ccccc2o1`: the values for the IC50 in assay [4] and in assay [5] were 17 µM and 0.19 µM, respectively.
With `O=C(/C=C(\O)C(F)(F)C(F)(F)F)c1ccc(Cl)cn1`, the IC50 in assay [4] was found to be 0.51 µM; in assay [5], 0.23 µM. Moreover, the EC50 in assay [6] stood at 14 µM.
For `O=C(/C=C(\O)C(F)(F)C(F)(F)F)Nc1ccccc1`, the figures for the IC50 in assay [4] and in assay [5] were 378 µM and 18 µM, respectively.
In the same order, the values of `Cc1ccc(C(=O)/C=C(\O)C(F)(F)C(F)(F)F)cn1` are 1.7 µM and 0.15 µM.
In the same order, the values of `Cn1ccc(C(=O)/C=C(\O)C(F)(F)C(F)(F)F)c1` are 14 µM and 0.13 µM.
Take `O=C(/C=C(\O)C(F)(F)CO)c1cccnc1`: the IC50 in assay [5] turned out to be 5.5 µM.
